This is an account of results in US7319153B2, “6,13-Bis(thienyl)pentacene compounds” (3M Innovative Properties Company, priority 2005, dated 2008).

The conditions of data set [1]: isolation and purification; cited from earlier work.
The nature of data set [2]: Solubility in tetrahydrofuran-d8 by proton NMR of saturated solutions. The format is physicochemical. Here is the method: The solubility of each compound prepared in Examples 1 to 4 was determined by the following method. The proton NMR spectra of saturated solutions of the compounds prepared in Examples 1 to 4 dissolved in tetrahydrofuran-d8 were compared with the proton NMR spectrum of a standard solution (i.e., known concentration) of the compound of Example 2, which was 2-hexyl-5-[ 13-(5-hexylthien-2-yl)pentacene-6-yl]thiophene, dissolved in tetrahydrofuran-d8. The same lot of tetrahydrofuran-d8 was used to make all of the solutions. The standard solution was prepared by dissolving 7.0 mg of the compound of Example 2 in 936 mg of tetrahydrofuran-d8 to give a 0.742 weight percent solution. Saturated solutions of the compounds of Examples 1 to 4 were prepared by placing an excess of the corresponding compound in approximately 1 mL of tetrahydrofuran-d8 and mixing for 30 minutes. The solutions were filtered and placed in an NMR tube and the corresponding proton NMR spectra were obtained.
For the standard (0.742 weight percent solution of the compound of Example 2), the NMR integration for the absorption at 8.59 ppm (the most down-field absorption corresponding to the four protons at positions 5, 7, 12 and 14) was compared to the absorption of the residual protio-tetrahydrofuran at 3.6 ppm to give a relative ratio of moles of the compound of Example 2 to moles of protio-tetrahydrofuran of 0.33. The molar ratio of the compound of Example 2 to tetrahydrofuran (protio- and deutero-) in the standard solution is 8.83×10^−4. This molar ratio (8.83×10^−4) divided by the relative ratio of moles of the compound of Example 2 to moles of protio-tetrahydrofuran (0.33) gave a factor of 2.68×10^−3. Multiplying this factor by the proton NMR integration for the saturated solutions of the corresponding compounds of Example 1 to 4 gave the ratio of moles of pentacene derivative to moles of tetrahydrofuran in the saturated solutions. This allowed the calculation of the concentrations for the various solutions of compounds of Examples 1 to 4 as shown in the table below.

Data set [3] in a line: Stability in tetrahydrofuran (endoperoxide formation by proton NMR). The class given is physicochemical. The settings on record: for Mole percent impurity—120 hours: endoperoxide in tetrahydrofuran-d8 after 120 hours, protected from light; for Mole percent impurity—120 hours / Mole percent increase: room temperature; for Mole percent impurity—initial: endoperoxide in tetrahydrofuran-d8 solution; for Mole percent increase: increase of endoperoxide over 120 hours in tetrahydrofuran-d8, protected from light. The method, then:
The solution stabilities of the compounds of Examples 1 to 4 were determined by proton NMR analysis of saturated solutions of the corresponding compounds in tetrahydrofuran-d8. Comparing the proton NMR integration of the four protons at positions 5, 7, 12 and 14 (8.51 ppm to 8.69 ppm) to the integration of the four corresponding protons from the endoperoxide (the major and only detectable decomposition product, 7.93 ppm to 7.98 ppm), the percent increase of this impurity was determined for each compound. The solutions were prepared by dissolving the corresponding compound in tetrahydrofuran-d8 and the proton NMR spectra were obtained to determine the initial concentration of endoperoxide for each sample. The solutions were allowed to stand protected from light at room temperature (i.e., 20° C. to 25° C.) for 120 hours. Proton NMR spectra of the aged samples were taken and the increase in absorption of the endoperoxide was used to calculate the data shown in Table 3. The formation of the endoperoxide is shown in the following reaction for compounds of Formula II.

The conditions of data set [4]: small quantity extracted into refluxing 1,2-dichlorobenzene; cited from earlier work.
Where [5] appears, read: saturated solution in tetrahydrofuran-d8, mixed 30 minutes, filtered.

SMILES strings stand for the structures. Where two headings read alike, the source gives them in different places.

As for `C[Si](C)(C)c1cc2cc3cc4cc5cc([Si](C)(C)C)c([Si](C)(C)C)cc5cc4cc3cc2cc1[Si](C)(C)C` [2,3,9,10-tetrakis(trimethylsilyl)pentacene], the “air and light sensitivity” value in data set [1] is “highly air- and light-sensitive”.

`c1csc(-c2c3cc4ccccc4cc3c(-c3cccs3)c3cc4ccccc4cc23)c1` [Example 1, 2-(13-thien-2-ylpentacene-6-yl)thiophene]: in data set [2] (setting [5]), the “Molarity in THF” value is given as 6.58 × 10^−3, the “Moles of compound/moles of THF” value was 5.35 × 10^−4 and the “Weight percent in THF” value is reported as 0.327 weight percent. In data set [3], the “Mole percent impurity—120 hours” value came out at 21.26 mole percent, the “Mole percent impurity—initial” value was found to be 5.66 mole percent and the Mole percent increase is on record as 15.60 mole percent.

For the compound `CCCCCCc1ccc(-c2c3cc4ccccc4cc3c(-c3ccc(CCCCCC)s3)c3cc4ccccc4cc23)s1` [Example 2, 2-hexyl-5-[13-(5-hexylthien-2-yl)pentacene-6-yl]thiophene], in data set [2] (setting [5]), the “Molarity in THF” value is given as 1.22 × 10^−1, the “Moles of compound/moles of THF” value is given as 1.08 × 10^−2 and the “Weight percent in THF” value is listed as 8.35 weight percent. Further, in data set [3], the “Mole percent impurity—120 hours” value is 10.71 mole percent, the “Mole percent impurity—initial” value was determined as 2.91 mole percent and the Mole percent increase turned out to be 7.80 mole percent.

With `C[Si](C)(C)c1ccc(-c2c3cc4ccccc4cc3c(-c3ccc([Si](C)(C)C)s3)c3cc4ccccc4cc23)s1` [Example 3, trimethyl(5-{13-[5-(trimethylsilyl)thien-2-yl]pentacen-6-yl}thien-2-yl)silane], in data set [2] (setting [5]), the “Molarity in THF” value is reported as 3.54 × 10^−2, the “Moles of compound/moles of THF” value is listed as 2.94 × 10^−3 and the “Weight percent in THF” value was found to be 2.34 weight percent. In data set [3], the “Mole percent impurity—120 hours” value was 4.76 mole percent, the “Mole percent impurity—initial” value is 1.96 mole percent and the Mole percent increase amounted to 2.80 mole percent.

Regarding `c1csc(-c2ccc(-c3c4cc5ccccc5cc4c(-c4ccc(-c5cccs5)s4)c4cc5ccccc5cc34)s2)c1` [Example 4, 5-[13-(2,2′-bithien-5-yl)pentacen-6-yl]-2,2′-bithiophene], in data set [2], the “Molarity in THF” value is listed as 1.98 × 10^−3 and the “Moles of compound/moles of THF” value is reported as 1.61 × 10^−4. Also, the “Weight percent in THF” value in data set [2] (setting [5]) is on record as 0.135 weight percent. Further, in data set [3], the “Mole percent impurity—120 hours” value is listed as 6.54 mole percent, the “Mole percent impurity—initial” value was determined as 2.91 mole percent and the Mole percent increase is listed as 3.63 mole percent.

Consider `c1ccc2cc3cc4cc5ccccc5cc4cc3cc2c1` [pentacene], for which the time to bleaching entry in data set [4] is “less than 5 minutes”.
